≈ marks a conversion by molar mass, not a printed value. Results filed as inconclusive are left out. Calls of active or inactive are those of the source. How the calls were made is not given here.

The test relates to M. tuberculosis H37Rv growth inhibition. The experiment in a line: Confirmatory growth inhibition assay against Mycobacterium tuberculosis H37Rv, potency (AID 1949).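 Further: bacteria grown 7 days with compound before Alamar blue readout.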

In the case of `CC(C)(C)c1ccc(OCCCNCc2ccccc2)cc1`, the IC50 is 4.84 µg/mL (≈ 16.3 µM).

On to `N#Cc1c(NC(=S)NC(=O)C2CCCC2)sc2c1CCCC2`, for which the IC50 was 28.4 µg/mL (≈ 85.2 µM).

Consider `O=C(CS(=O)(=O)c1ccc2ccccc2c1)Nc1ccccc1Cl`, for which the IC50 is 4.48 µg/mL (≈ 12.5 µM).

As to `FC(F)(F)c1cccc(NC(=S)Nc2cccc(Cl)c2)c1`, the IC50 is 13.5 µg/mL (≈ 40.9 µM).

As for `CC(=O)c1ccc(COC(=O)c2ccc([N+](=O)[O-])cc2Cl)cc1`, the IC50 is 40.7 µg/mL (≈ 122 µM).

Consider `CC1CCN(c2cc(/C=C(\C#N)c3nn(-c4ccccc4)c(N)c3C#N)c3ccccc3n2)CC1`, for which the IC50 was > 50 µg/mL (inactive).

In the case of `CCOC(=O)COc1ccc2c(C)c(CC(=O)OC)c(=O)oc2c1C`, the IC50 is 7.36 µg/mL (≈ 21.1 µM).

With `O=C(CC12CC3CC(CC(C3)C1)C2)Nc1cccc(Cl)c1`, the 50% inhibitory concentration (IC50) is 3.34 µg/mL (≈ 11 µM).

As to `Cc1cc(C)cc(C(=O)Nc2ccc(N3CCN(C(=O)c4cccs4)CC3)c(Cl)c2)c1`, the IC50 was 15.5 µg/mL (≈ 34.2 µM).

Regarding `COc1cccc(OC)c1C(=O)Nc1cccc(-c2nc3cc(C)ccc3o2)c1`, the IC50 was > 50 µg/mL (inactive).

For the molecule `CSc1cccc(NC(=O)CSc2ccc(F)cc2)c1`, the IC50 is 2.86 µg/mL (≈ 9.3 µM).

As for `Fc1ccc(CCNC(=S)Nc2ccc(Nc3ccccc3)cc2)cc1`, the IC50 was > 50 µg/mL (inactive).

With `S=C(NCCc1c[nH]c2ccccc12)Nc1ccc(Nc2ccccc2)cc1`, the IC50 is 2.81 µg/mL (≈ 7.27 µM).

On to `CC(C)CCNC(=O)C(=O)Nc1ccccc1Cl`, for which the IC50 is 0.84 µg/mL (≈ 3.13 µM).

Regarding `O=C(Nc1ccc([N+](=O)[O-])cc1)N1CCN(c2cccc(C(F)(F)F)c2)CC1`, the IC50 is 1.56 µg/mL (≈ 3.96 µM).

As for `CC(=O)c1ccc(NC(=O)Nc2cc(OCC(F)(F)F)cc(OCC(F)(F)C(F)F)c2)cc1`, the IC50 was 2.74 µg/mL (≈ 5.68 µM).

As for `O=C(CC1(O)C(=O)N(CCc2ccccc2)c2ccc(Cl)cc21)c1ccccn1` (centres undefined), the IC50 was 5.07 µg/mL (≈ 12.5 µM).

As to `COC(=O)c1ccc(NC(=O)CSc2nnc(Cc3ccc(OC)cc3)o2)cc1`, the half-inhibitory concentration (IC50) was 11.1 µg/mL (≈ 26.8 µM).

Turning to `CN(C)C(=S)NC(=O)c1cccc(Cl)c1`, the IC50 is 4.63 µg/mL (≈ 19.1 µM).

`COC(=O)c1c(NC(=O)c2c(F)c(F)c(F)c(F)c2F)sc2c1CCCCC2`: the concentration for half-maximal inhibition (IC50) was 0.36 µg/mL (≈ 0.858 µM).

Turning to `CC(CCc1ccccc1)Nc1cc(N2CCNCC2)ccc1[N+](=O)[O-]` (centres undefined), the IC50 was > 50 µg/mL (inactive).

Regarding `O=C(Nc1ccccc1Br)c1ccc([N+](=O)[O-])o1`, the concentration for half-maximal inhibition (IC50) was 1.61 µg/mL (≈ 5.18 µM).

With `COc1ccc(C(=O)NC(=S)Nc2ccc([N+](=O)[O-])cc2O)cc1Br`, the IC50 is below 0.1 µg/mL.

Take `Cn1c(=O)[nH]c2nnc(-c3ccccn3)nc2c1=O`: the IC50 is > 50 µg/mL (inactive).

`O=C(NCCCN1CCN(c2ccc(F)cc2)CC1)NC12CC3CC(CC(C3)C1)C2`: the IC50 was > 50 µg/mL (inactive).

Regarding `CCOc1cc2c3c(c1)C1(C(=O)N3C(C)(C)C=C2C)C(C#N)=C(N)Oc2cc(O)ccc21` (centres undefined), the IC50 was 3.09 µg/mL (≈ 7.19 µM).

As to `COc1ccc(Nc2cc(C)nc3c2ccc2ccccc23)cc1`, the IC50 is 1.62 µg/mL (≈ 5.15 µM).

With `Cc1ccc(SCC(=O)Nc2ccc(C)c([N+](=O)[O-])c2)cc1`, the IC50 is 2.18 µg/mL (≈ 6.89 µM).

For `COc1cc(Br)cc2cc(C(=O)Nc3cccc(C(F)(F)F)c3)c(=O)oc12`, the IC50 was 0.11 µg/mL (≈ 0.249 µM).

`O=C(CCC(=O)OCc1cccc(C(=O)Oc2ccccc2)c1)Nc1cccc2ccccc12`: the 50% inhibitory concentration (IC50) was 12.6 µg/mL (≈ 27.8 µM).

Turning to `Cc1cc(C)cc(-c2nc(-c3cccnc3)no2)c1`, the IC50 was 47.7 µg/mL (≈ 190 µM).

In the case of `O=C(Oc1ccc(F)cc1)c1ccc(Oc2ccc([N+](=O)[O-])cc2)cc1`, the IC50 is 1.12 µg/mL (≈ 3.17 µM).

In the case of `O=C(Nc1ccc(Cc2ccncc2)cc1)c1ccc(-c2cccc(C(F)(F)F)c2)o1`, the IC50 is 12 µg/mL (≈ 28.5 µM).

Regarding `CCOC(=O)c1sc(NC(=S)NC2CCN(Cc3ccccc3)CC2)c(C(=O)OCC)c1C`, the IC50 was > 50 µg/mL (inactive).

`CN(C)CCC(=O)c1ccc(Br)cc1`: the IC50 is 0.61 µg/mL (≈ 2.38 µM).

In the case of `CC(C)(C)c1ccc(C(=O)Nc2ccc(S(=O)(=O)Nc3nccs3)cc2)cc1Br`, the IC50 was 1.19 µg/mL (≈ 2.41 µM).

Turning to `COc1ccc(Cc2nn3c(-c4ccccc4)nnc3s2)cc1`, the IC50 was 0.63 µg/mL (≈ 1.95 µM).

Turning to `CCc1cc2c(=O)oc(-c3ccc(F)cc3)nc2s1`, the IC50 was > 50 µg/mL (inactive).

On to `CC(C)(C)c1cc(Cl)c(O)c(NC(=S)NC(=O)c2cccnc2)c1`, for which the IC50 was below 0.1 µg/mL.

As to `Cc1ccc2c(c1)c(-c1ccccc1)c(-c1ccccc1)n2CC(O)CN1CCN(CCO)CC1` (centres undefined), the IC50 is 1.84 µg/mL (≈ 3.92 µM).

With `c1ccc(Nc2nc(Nc3ccccc3)nc(N3CCNCC3)n2)cc1`, the IC50 is 3.99 µg/mL (≈ 11.5 µM).

As to `COC(=O)c1sccc1NC(=O)c1c(F)c(F)c(F)c(F)c1F`, the IC50 is 0.21 µg/mL (≈ 0.598 µM).

For the molecule `CCOC(=O)C(Oc1ccc2oc(C)c(C(=O)OC)c2c1)c1ccccc1` (centres undefined), the IC50 was 2.95 µg/mL (≈ 8.01 µM).

As to `Cc1cc(Oc2nc([N+](=O)[O-])nn2C)ccc1Cl`, the IC50 was 5.88 µg/mL (≈ 21.9 µM).

With `COc1ccc(C2(C(=O)Nc3ccc(Br)cc3)CCCC2)cc1`, the IC50 was 1.37 µg/mL (≈ 3.66 µM).

Consider `CC(=O)Cc1nc(-c2ccccc2)no1`, for which the IC50 was > 50 µg/mL (inactive).

Take `O=C(Oc1ccccc1)c1ccc(COC(=O)c2cc3ccccc3oc2=O)cc1`: the IC50 is > 50 µg/mL (inactive).

For the molecule `C=CCc1cc(Cl)ccc1OCCCNCCCC`, the IC50 was 5.34 µg/mL (≈ 18.9 µM).

Regarding `COc1ccccc1C(=O)NNC(=S)NC(=O)c1ccc(-c2ccccc2)cc1`, the IC50 was below 0.1 µg/mL.

Values taken from PubChem BioAssay AID1949 (Southern Research Institute, 2009).
